Reference: ChEMBL document CHEMBL1201862, “PubChem BioAssay data set” (2004)
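Cultured in 96-well plates, cells were exposed to test compound for 48 hours across five concentrations. GI50 is the concentration that inhibits growth by half.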 The source made the active and inactive calls. No stated cut-off is given here; in the data, active = GI50 up to about 1.1 µM and inactive = higher. Peptide text beside a SMILES is read from it.

What was measured:
Assay in all cases: NCI tumour cell line growth inhibition, 48 h
SNB-78 = system: SNB-78
DLD-1 = system: DLD-1
RXF 631 = system: RXF 631
LXFL 529 = system: LXFL 529
XF498 = system: XF498
DMS-273 = system: DMS-273
KM-20L2 = system: KM-20L2
HOP-18 = system: HOP-18
DMS-114 = system: DMS-114

Compound	GI50 (SNB-78)	GI50 (DLD-1)	GI50 (RXF 631)	GI50 (LXFL 529)	GI50 (XF498)	GI50 (DMS-273)	GI50 (KM-20L2)	GI50 (HOP-18)	GI50 (DMS-114)
C=C1C(=O)OC2CCCCC3OC3C12 (centres undefined)	19.4 µM (inactive)	7.83 µM (inactive)	6.19 µM (inactive)	7.26 µM (inactive)	12 µM (inactive)	10.3 µM (inactive)	10.1 µM (inactive)	11 µM (inactive)	–
O=C(Nc1ccc(Cl)cc1)c1cc([N+](=O)[O-])ccc1O	–	3.71 µM (inactive)	2.9 µM (inactive)	2.9 µM (inactive)	2.82 µM (inactive)	5.55 µM (inactive)	4.49 µM (inactive)	1.58 µM (inactive)	2.35 µM (inactive)
C/C(=C\CBr)CCC(Br)C(C)(C)Cl (centres undefined)	> 100 µM (inactive)	> 100 µM (inactive)	–	> 100 µM (inactive)	–	> 100 µM (inactive)	–	> 100 µM (inactive)	> 100 µM (inactive)
COc1cccc(/C=N\NC(=O)C(C)SC(C)C(=O)N/N=C/c2cccc(OC)c2)c1 (centres undefined)	36 µM (inactive)	58.2 µM (inactive)	–	33.9 µM (inactive)	53.1 µM (inactive)	33 µM (inactive)	47 µM (inactive)	–	19.4 µM (inactive)
COc1ccc(-c2oc(/C=N/NC(N)=S)c([N+](=O)[O-])c2-c2ccc(OC)c(OC)c2)cc1OC	–	24.3 µM (inactive)	30.4 µM (inactive)	20.3 µM (inactive)	26.7 µM (inactive)	–	18.2 µM (inactive)	–	19.4 µM (inactive)
O=S1(=O)[C@H](c2ccccc2)c2c(-c3ccccc3)sc(-c3ccccc3)c2[C@@H]1c1ccccc1	–	> 100 µM (inactive)	–	88.1 µM (inactive)	–	> 100 µM (inactive)	> 100 µM (inactive)	77.1 µM (inactive)	> 100 µM (inactive)
COc1cc(C(=O)C/C(CCCC(=O)Nc2ccccc2[N+](=O)[O-])=N/NC(=O)c2cc3ccccc3cc2O)ccc1O	> 63.8 µM (inactive)	36.7 µM (inactive)	> 71.4 µM (inactive)	–	> 100 µM (inactive)	15.6 µM (inactive)	27.4 µM (inactive)	6.24 µM (inactive)	–
O=C1NC2(CCCCC2)C2CCCCC=C12 (centres undefined)	> 100 µM (inactive)	> 100 µM (inactive)	–	> 100 µM (inactive)	> 100 µM (inactive)	> 100 µM (inactive)	–	> 100 µM (inactive)	> 100 µM (inactive)
COc1ccc2c3c(c(C(=O)c4ccccc4)oc13)CCC2	> 100 µM (inactive)	> 100 µM (inactive)	> 100 µM (inactive)	> 100 µM (inactive)	> 100 µM (inactive)	> 100 µM (inactive)	> 100 µM (inactive)	> 100 µM (inactive)	> 100 µM (inactive)
CNC(=O)OCc1cc2ccncc2c2c1[nH]c1ccccc12	> 72.6 µM (inactive)	5.89 µM (inactive)	–	> 39.6 µM (inactive)	> 45.1 µM (inactive)	> 100 µM (inactive)	> 100 µM (inactive)	> 100 µM (inactive)	> 100 µM (inactive)
CCOC(=O)C(=O)Nc1c(C)cccc1C(C)(C)C	> 100 µM (inactive)	–	> 100 µM (inactive)	> 100 µM (inactive)	> 100 µM (inactive)	> 100 µM (inactive)	> 100 µM (inactive)	> 100 µM (inactive)	> 100 µM (inactive)
C=C1C(=O)OC2CC3(C)OC3CC/C(C)=C/C(OC(C)=O)C12 (centres undefined)	9.44 µM (inactive)	2.75 µM (inactive)	–	2.14 µM (inactive)	2 µM (inactive)	14.9 µM (inactive)	6.55 µM (inactive)	10.4 µM (inactive)	7.4 µM (inactive)
Cc1cc(N(CCC#N)CCC#N)ccc1/C=C(\N=[N+]=[N-])C(=O)NC(=O)COc1ccccc1	> 61.7 µM (inactive)	> 100 µM (inactive)	> 100 µM (inactive)	> 100 µM (inactive)	34.7 µM (inactive)	> 100 µM (inactive)	> 100 µM (inactive)	> 100 µM (inactive)	> 100 µM (inactive)
O=C(CSC(=S)N1CCCCC1)Nc1nc2c(s1)CCCC2	> 100 µM (inactive)	26.9 µM (inactive)	–	32.1 µM (inactive)	19.3 µM (inactive)	49.4 µM (inactive)	46 µM (inactive)	–	53.2 µM (inactive)
C=C(C)C12CC3CC(/C(=N/O)C(C1)/C3=N\O)[C@@]2(C)O (some centres undefined)	> 100 µM (inactive)	> 100 µM (inactive)	–	> 100 µM (inactive)	–	> 100 µM (inactive)	> 100 µM (inactive)	–	> 100 µM (inactive)
CC(C)CC(NC(=O)C(CC(C)C)NC(=O)C(Cc1c[nH]cn1)NC(=O)C(C)NC(=O)C(NC(=O)C(C)NC(=O)C(Cc1c[nH]c2ccccc12)NC(=O)C(CCC(=O)O)NC(=O)C(N)Cc1ccccc1)C(C)C)C(N)=O (centres undefined) (H-FEWAVAHLL-NH2; configuration not given here)	> 100 µM (inactive)	> 100 µM (inactive)	> 100 µM (inactive)	> 100 µM (inactive)	> 100 µM (inactive)	> 100 µM (inactive)	> 100 µM (inactive)	> 100 µM (inactive)	> 100 µM (inactive)
O=C(c1ccc(Cl)cc1)c1ccc(OCCSCCCCCCCCCCSCCOc2ccc(C(=O)c3ccc(Cl)cc3)cc2)cc1	> 100 µM (inactive)	> 100 µM (inactive)	> 100 µM (inactive)	–	–	> 100 µM (inactive)	> 100 µM (inactive)	–	–
CCOc1ccc2c(c1)[n+]([O-])c(-c1ccc([N+](=O)[O-])cc1)c(N)[n+]2[O-]	> 100 µM (inactive)	> 100 µM (inactive)	> 100 µM (inactive)	> 100 µM (inactive)	–	> 100 µM (inactive)	> 100 µM (inactive)	> 100 µM (inactive)	29.6 µM (inactive)
N=C(N)N/N=C/c1oc(-c2ccc(S(=O)(=O)O)o2)c(-c2ccc(S(=O)(=O)O)o2)c1[N+](=O)[O-]	–	> 100 µM (inactive)	–	> 100 µM (inactive)	–	> 100 µM (inactive)	> 100 µM (inactive)	> 100 µM (inactive)	> 100 µM (inactive)
O=Cc1c(O)c(C(=O)Nc2ccc3[nH]c(=O)[nH]c3c2)cc2ccccc12	> 100 µM (inactive)	> 100 µM (inactive)	> 100 µM (inactive)	> 100 µM (inactive)	–	> 100 µM (inactive)	> 100 µM (inactive)	> 100 µM (inactive)	> 100 µM (inactive)
CC(C)(C)OC(=O)NC1CCC[C@H]1O (some centres undefined)	> 100 µM (inactive)	> 100 µM (inactive)	> 100 µM (inactive)	> 100 µM (inactive)	> 100 µM (inactive)	> 100 µM (inactive)	> 100 µM (inactive)	–	> 100 µM (inactive)
CCCCc1c2c(nc3c1CC/C(=C\c1ccc([N+](=O)[O-])cc1)C3=O)CCCC2	1.96 µM (inactive)	1.75 µM (inactive)	–	1.37 µM (inactive)	–	1.76 µM (inactive)	2.01 µM (inactive)	–	2.1 µM (inactive)
Cc1ccc(NC(=O)C(=O)C(C(=O)c2ccc3ccccc3c2)C2OC(=O)c3ccccc32)c(C)c1 (centres undefined)	8.73 µM (inactive)	12.6 µM (inactive)	4.68 µM (inactive)	8.09 µM (inactive)	0.485 µM (active)	> 10 µM (inactive)	24.4 µM (inactive)	12.1 µM (inactive)	7.6 µM (inactive)
COC(=O)/C=C(/C(=O)OC)C1(C)c2cc(C(=O)OC)c(C(=O)OC)c(N)c2C(=N)N1c1ccccc1 (centres undefined)	–	13.8 µM (inactive)	29.1 µM (inactive)	19 µM (inactive)	14.7 µM (inactive)	52.8 µM (inactive)	17 µM (inactive)	20.6 µM (inactive)	15.1 µM (inactive)
COc1ccc(C(=O)C(CO)Oc2ccccc2OC)cc1OC (centres undefined)	> 100 µM (inactive)	> 100 µM (inactive)	> 100 µM (inactive)	> 100 µM (inactive)	> 100 µM (inactive)	> 100 µM (inactive)	> 100 µM (inactive)	–	> 100 µM (inactive)
CCOC(=O)c1cccc(=O)c(C(=O)OCC)c1	57.3 µM (inactive)	40 µM (inactive)	67 µM (inactive)	38.3 µM (inactive)	46.1 µM (inactive)	48.2 µM (inactive)	97.3 µM (inactive)	–	46.8 µM (inactive)
O=C(O)C1OC(n2cc(F)c(=O)[nH]c2=O)CC1O (centres undefined)	> 26.2 µM (inactive)	> 100 µM (inactive)	–	8.99 µM (inactive)	> 68.2 µM (inactive)	12.9 µM (inactive)	23.8 µM (inactive)	40.6 µM (inactive)	> 92.3 µM (inactive)
COc1cc(OC(C)=O)cc2c(OC(C)=O)ccc(OC(C)=O)c12	> 100 µM (inactive)	–	–	> 100 µM (inactive)	–	–	> 100 µM (inactive)	–	–
CC(C)(C)c1cc(C#N)c2c(c1)C(=O)OC2(c1ccccc1)c1ccccc1C#N (centres undefined)	> 100 µM (inactive)	> 100 µM (inactive)	–	> 100 µM (inactive)	> 100 µM (inactive)	> 100 µM (inactive)	> 100 µM (inactive)	> 100 µM (inactive)	> 100 µM (inactive)
O=C(NC1CCCCC1)c1c(O)[nH]c(=S)[nH]c1=O	99.1 µM (inactive)	> 100 µM (inactive)	> 100 µM (inactive)	> 100 µM (inactive)	–	–	> 100 µM (inactive)	> 100 µM (inactive)	88.5 µM (inactive)
